Structures can show the parent of a compound that is named as a salt.
Legend:
Assay type in all cases: functional
Details in all cases: Homo sapiens, read-out: ED50 (the source's name)
[1] = system: PC-3; assay: Cytotoxicity against PC-3 cell line in the purdue cell culture screen was determined
[2] = system: A549; assay: Cytotoxicity against A-549 cell line in the purdue cell culture screen was determined
[3] = system: MCF7R; assay: Cytotoxicity against MCF-7R cell line in the purdue cell culture screen was determined
[4] = system: MIA PaCa-2; assay: Cytotoxicity against PACA-2 cell line in the purdue cell culture screen was determined
[5] = system: HT-29; assay: Cytotoxicity against HT-29 cell line in the purdue cell culture screen was determined
[6] = system: NCI/ADR-RES; assay: Cytotoxicity against MCF-7ADR cell line in the purdue cell culture screen was determined
[7] = system: MCF7; assay: Cytotoxicity against MCF-7 cell line in the purdue cell culture screen was determined
[8] = system: A498; assay: Cytotoxicity against A-498 cell line in the purdue cell culture screen was determined

Row | SMILES | EC50 [1] [µM] | EC50 [2] [µM] | EC50 [3] [µM] | EC50 [4] [µM] | EC50 [5] [µM] | EC50 [6] [µM] | EC50 [7] [µM] | EC50 [8] [µM]
1 | CC(C)CCC1([C@@H](C)[C@@]2(O)[C@H](O)C[C@@]3(C)C4CC[C@@]5(C)C[C@@H](O)CC[C@]5(C)[C@@]4(C)CC[C@]23C)OCCO1 (stereo not given in full) | 39 | 13 | 7.1 | 6.4 | 3 | 28 | 2.4 | 1.7
2 | CC(C)CCC(=O)[C@@H](C)[C@@]1(O)C(=O)C[C@@]2(C)C3CC[C@@]4(C)C[C@@H](O)CC[C@]4(C)[C@@]3(C)CC[C@@]21C (stereo not given in full) | 5.6 | 105 | 55 | 30 | 1.6 | 100 | 130 | 19.3
3 | CC(C)CCC1([C@@H](C)[C@@]2(O)C(=O)C[C@@]3(C)C4CC[C@@]5(C)C[C@@H](O)CC[C@]5(C)[C@@]4(C)CC[C@@]32C)OCCO1 (stereo not given in full) | 43 | 17 | 6.5 | 23 | 2.1 | 13 | 5.6 | 2.4
4 | CO/N=C1\C[C@]2(C)CCC3C4=C[C@@H]5OC6(CC(C)(C)CO6)[C@@H](C)[C@@H]5[C@@]4(C)[C@H](O)C[C@]3(C)[C@@]2(C)C[C@H]1N (stereo not given in full) | 14 | 5.9 |  | 14 | 7.8 | 76 | 14 | 3.1
5 | CC(=O)O[C@H]1CC[C@@]2(C)[C@@](C)(CCC3[C@]2(C)CC[C@]2(C)[C@@](O)([C@H](C)C4(CCC(C)C)OCCO4)[C@H](O)C[C@@]32C)C1 (stereo not given in full) | 17 | 30 | 31 | 23 | 29 | 42 | 23 | 16
6 | CC(C)CCC1([C@@H](C)[C@@]2(O)[C@@H](O)C[C@@]3(C)C4CC[C@@]5(C)C[C@@H](O)CC[C@]5(C)[C@@]4(C)CC[C@]23C)OCCO1 (stereo not given in full) | 0.4 | 0.34 | 1.6 | 1.2 | 0.58 |  |  | 1.3
7 | CC(C)CCC1([C@@H](C)[C@@]2(O)[C@@H](O)C[C@@]3(C)C4CC[C@@]5(C)Cc6nc7c(nc6C[C@]5(C)[C@@]4(C)CC[C@]23C)C[C@]2(C)CCC3C4=C[C@@H]5OC6(CC(C)(C)CO6)[C@@H](C)[C@@H]5[C@@]4(C)[C@H](O)C[C@]3(C)[C@@]2(C)C7)OCCO1 (stereo not given in full) | 0.3 | 0.1 | 1 | > 2.2 | > 2.6 |  |  | 3.1
8 | CC(C)CCC1([C@@H](C)[C@@]2(O)[C@@H](O)C[C@@]3(C)C4CC[C@]5(C)Cc6nc7c(nc6C[C@]5(C)[C@]4(C)CC[C@]23C)C[C@@]2(C)CCC3[C@@H]4C[C@@H]5OC6(O[C@](C)(CO)C[C@H]6O)[C@@H](C)[C@]5(O)[C@@]4(C)[C@H](O)C[C@]3(C)[C@@]2(C)C7)OCCO1 (stereo not given in full) | 1.1 | 2.9 | 0.62 | 2.4 | 0.22 |  |  | 1.1
9 | CC(=O)O[C@H]1CC[C@@]2(C)C(=CCC3[C@]4(C)CC(=O)[C@](O)([C@H](C)C5(CCC(C)C)OCCO5)[C@@]4(C)CC[C@@]32C)C1 (stereo not given in full) | 3.7 | 15 | 11 | 2.2 | 0.5 | 26 | 28 | 2.8
10 | CC(C)CCC(=O)[C@@H](C)[C@@]1(O)[C@H](O)C[C@@]2(C)C3CC[C@@]4(C)C[C@@H](O)CC[C@]4(C)[C@@]3(C)CC[C@]12C (stereo not given in full) | 43 | 17 | 6.5 | 23 | 2.1 | 13 | 5.6 | 2.4
11 | CC(=O)O[C@H]1CC[C@@]2(C)[C@@](C)(CCC3[C@]2(C)CC[C@@]2(C)[C@@]3(C)CC(=O)[C@]2(O)[C@H](C)C2(CCC(C)C)OCCO2)C1 (stereo not given in full) | 580 | 31 | 89 | 88 | 7.5 | 70 | 39 | 15
12 | CC(=O)O[C@H]1CC[C@@]2(C)C(=CCC3[C@]4(C)C[C@H](O)[C@](O)([C@H](C)C5(CCC(C)C)OCCO5)[C@@]4(C)CC[C@@]32C)C1 (stereo not given in full) | 10 | 15 | 33 | 11 | 4.8 | > 64 | > 60 | 2.8
13 | C[C@@H]1[C@]2(O[C@H]3C=C4[C@@H]5CC[C@H]6Cc7nc8c(nc7C[C@]6(C)[C@H]5C[C@@H](O)[C@]4(C)[C@]31O)C[C@@H]1CC[C@H]3C4=CC[C@@H]5[C@H](C)[C@@]6(OC[C@]45C(=O)C[C@@H]3[C@@]1(C)C8)OC(C)(C)C[C@H]6O)O[C@](C)(CO)C[C@H]2O [CEPHALOSTATIN 1] | 1.4 |  |  | 4 |  | 4.1 |  | 
14 | COc1cccc2c1C(=O)c1c(O)c3c(c(O)c1C2=O)C[C@@](O)(C(=O)CO)C[C@@H]3O[C@H]1C[C@H](N)[C@H](O)[C@H](C)O1 [DOXORUBICIN HYDROCHLORIDE] | 5.7 | 6.2 | 0.6 | 6.3 | 3.7 | 1.5 | 3.4 | 3.5

From ChEMBL document CHEMBL1131928, “On the relationship of OSW-1 to the cephalostatins” (1999)
